Source: US7718715B2, “pH-modified latex comprising a synergistic combination of biocides” (S.C. Johnson & Son, Inc., priority 2004, dated 2010)

Columns and labels:
Assay type in all cases: cell-based
[1] = test system: Escherichia coli, Pseudomonas aeruginosa, Candida albicans, Aspergillus niger; experiment: Challenge Test, all test organisms; details: stabilized acrylic latex A
Protocol: The following cultures were obtained from American Type Culture Collection (ATCC) at 10801 University Boulevard, Manassas, Va. 20110-2209: Escherichia coli #11229, Pseudomonas aeruginosa #15442, Candida albicans #10231, Aspergillus niger #6275. The bacterial inoculum was 0.10 ml of a 1:1 mixture of the 24-hr±4 hr culture of E. coli and P. aeruginosa in 25 grams of sample to give approximately 4×10^6 CFU/g. Both E. coli culture and the P. aeruginosa culture were grown in Nutrient Broth (Difco Laboratories, Detroit, Mich.) at 35° C. The yeast inoculum was 0.10 ml of a 72-hr±4 hr culture of C. albicans in 25 grams of sample to give approximately 2×10^5 CFU/g. The C. albicans culture was grown in Potato Dextrose Broth (Difco Laboratories, Detroit, Mich.) at 28° C. The mold inoculum was 0.10 ml of A. niger culture specimen in 25 grams of sample to give approximately 2×10^5 CFU/g. The culture specimen was obtained from 7-day-old A. niger culture grown on Sabouraud Dextrose Agar (Difco Laboratories, Detroit, Mich.) with 0.2% Triton X-100 in 0.85% saline. Each of the 25-g samples were inoculated or challenged with 0.10 ml of the bacterial inoculum, the yeast inoculum, and the mold inoculum respectively on day-0 and day-14. All samples were stored at ambient temperature. […] Plates were read after incubation time. […]

[2] = test system: Aspergillus niger #6275; experiment: Challenge Test (Antimicrobial Effectiveness Test), mold inoculum; design: key to Challenge Test result: Mold A. niger: Fail: Recovery of surviving organisms at 14 days was a failing result for the challenge test; details: for Challenge Test result: Mold A. niger: stabilized acrylic latex A, DN 22%
Protocol: The following cultures were obtained from American Type Culture Collection (ATCC) at 10801 University Boulevard, Manassas, Va. 20110-2209: Escherichia coli #11229, Pseudomonas aeruginosa #15442, Candida albicans #10231, Aspergillus niger #6275. The mold inoculum was 0.10 ml of A. niger culture specimen in 25 grams of sample to give approximately 2×10^5 CFU/g. The culture specimen was obtained from 7-day-old A. niger culture grown on Sabouraud Dextrose Agar (Difco Laboratories, Detroit, Mich.) with 0.2% Triton X-100 in 0.85% saline. Each of the 25-g samples were inoculated or challenged with 0.10 ml of the bacterial inoculum, the yeast inoculum, and the mold inoculum respectively on day-0 and day-14. All samples were stored at ambient temperature. Each sample (10 microliter) was streaked on appropriate agar plates (bacteria on Tryptic Soy Agar (Difco Laboratories, Detroit, Mich.) plates with neutralizer and yeast/mold on Potato Dextrose Agar (Difco Laboratories, Detroit, Mich.) plates with neutralizer) on day-1, day-2, day-3, day-7, day-14, day-15, day-16, day-17, day-21, and day-28 to test for survivors. Streaked plates were incubated at appropriate temperature and time (48-hr at 35±2° C. for bacteria and 72-hr at 28±2° C. for yeast/mold). On day-14, each sample was re-inoculated with appropriate inoculum after streaking on agar plates. Plates were read after incubation time. Recovery of surviving organisms at 14 days was a failing result for the challenge test. Biocides were always added after the reaction has been completed and after the batch has been cooled to <50° C. The desired temperature was dependent on the specific biocide. Many biocides become deactivated if exposed to high temperatures for an extended time. Each biocide was diluted with about 5× its weight with DI water and slowly added to the batch with good agitation. The dilution is to prevent the biocide from shocking the latex. The batch was mixed for a minimum of 20 minutes after the biocide was added to ensure good incorporation. If any temporary destabilization to the latex had occurred, it had time to recover prior to filtration. The Challenge Test is a qualitative laboratory procedure used to differentiate poorly and marginally preserved products from well-preserved products. Products are intentionally inoculated with test organisms and then evaluated by use of streak plating technique to determine if microbial reduction has been attained.

[3] = test system: C. albicans & A. niger; experiment: Challenge Test end point on yeast and mold and Synergy Index (Kull); details: Bioban CS-1135 acting alone (QA); test stabilized acrylic latex A
Protocol: Each of the 25-g samples were inoculated or challenged with 0.10 ml of the bacterial inoculum, the yeast inoculum, and the mold inoculum respectively on day-0 and day-14. All samples were stored at ambient temperature. Each sample (10 microliter) was streaked on appropriate agar plates (bacteria on Tryptic Soy Agar (Difco Laboratories, Detroit, Mich.) plates with neutralizer and yeast/mold on Potato Dextrose Agar (Difco Laboratories, Detroit, Mich.) plates with neutralizer) on day-1, day-2, day-3, day-7, day-14, day-15, day-16, day-17, day-21, and day-28 to test for survivors. Streaked plates were incubated at appropriate temperature and time (48-hr at 35±2° C. for bacteria and 72-hr at 28±2° C. for yeast/mold). […] Plates were read after incubation time. […]
Synergism was determined by the method described by F. C. […] Eisman, H. D. Sylwestrowicz, and R. L. Mayer in Applied Microbiology, Volume 9, pages 538-541, 1961 using the ratio determined by • Synergy Index (SI)=Qa/QA+Qb/QB=1 is additivity, <1 is synergism, and >1 is antagonism • where, • Qa=concentration of compound A, in the mixture, producing an end point • QA=concentration of compound A, acting alone, producing an end point • Qb=concentration of compound B, in the mixture, producing an end point • QB=concentration of compound B, acting alone, producing an end point

Structure (SMILES)	concentration required to kill all organisms [1] [%]	Challenge Test result: Mold A. niger ([2]; 0.10% Bioban CS-1135, 0.00% Bronopol, pH 6.68)	Challenge Test result: Mold A. niger ([2]; 0.20% Bioban CS-1135, 0.00% Bronopol, pH 6.69)	Challenge Test result: Mold A. niger ([2]; 0.80% Bioban CS-1135, 0.00% Bronopol, pH 6.62)	Challenge Test result: Mold A. niger ([2]; 1.20% Bioban CS-1135, 0.00% Bronopol, pH 6.64)	Challenge Test result: Mold A. niger ([2]; 2.00% Bioban CS-1135, 0.00% Bronopol, pH 6.82)	Compound A end-point in % [3] [%]	Challenge Test result: Mold A. niger ([2]; 0.10% Bronopol (30% active), 0.00% Bioban CS-1135, pH 6.64, Table 1)	Challenge Test result: Mold A. niger ([2]; 0.10% Bronopol (30% active), 0.00% Dowicil 75, pH 6.64, Table 3)	killing of the mold (A. niger) ([2]; 0.2% BRONOPOL, acrylic latex A)	Challenge Test result: Mold A. niger ([2]; 0.20% Bronopol (30% active), 0.00% Bioban CS-1135, pH 6.65, Table 1)	Challenge Test result: Mold A. niger ([2]; 0.20% Bronopol (30% active), 0.00% Dowicil 75, pH 6.65, Table 3)	Challenge Test result: Mold A. niger ([2]; 0.50% Bronopol (30% active), 0.00% Bioban CS-1135, pH 6.58, Table 1)	Challenge Test result: Mold A. niger ([2]; 0.50% Bronopol (30% active), 0.00% Dowicil 75, pH 6.58, Table 3)	Challenge Test result: Mold A. niger ([2]; 0.80% Bronopol (30% active), 0.00% Bioban CS-1135, pH 6.57, Table 1)	Challenge Test result: Mold A. niger ([2]; 0.80% Bronopol (30% active), 0.00% Dowicil 75, pH 6.57, Table 3)	Challenge Test result: Mold A. niger ([2]; 1.20% Bronopol (30% active), 0.00% Bioban CS-1135, pH 6.57, Table 1)	Challenge Test result: Mold A. niger ([2]; 1.20% Bronopol (30% active), 0.00% Dowicil 75, pH 6.57, Table 3)	control of the growth of Aspergillus niger ([2]; maximum allowable level, test stabilized acrylic latex)
CC1(C)COCN1 [Bioban CS-1135, 4,4-dimethyl-oxazolidine]	2.0	Fail	Pass	Pass	Pass	Pass	2	–	–	–	–	–	–	–	–	–	–	–	–
O=[N+]([O-])C(Br)(CO)CO [Bronopol, 2-bromo-2-nitro-1,3-propanediol]	0.5	–	–	–	–	–	–	Fail	Fail	failed to kill	Fail	Fail	Pass	Pass	Pass	Pass	Pass	Pass	failed to control
